What was measured:
Format in all cases: in vivo, Caenorhabditis elegans
C. elegans mutant IH938 = test: Growth of heme resistant mutant in CeHR medium
Procedure: (§1) To further increase the stringency of our genetic screen we split the contents from each 800 μM hemin selection flasks into two flasks containing either 800 μM or 1000 μM hemin. This allowed us to use another tier of positive selection to identify mutants with greater resistance to heme toxicity. Mutants from each flask were isolated and treated as a separate entity by giving an identification number based on the Genetic Nomenclature Guidelines used for C. elegans (http://biosci.umn.edu/CGC/Nomenclature/nomenguid.htm). To eliminate EMS-induced spurious mutations that could result in false positive, the mutants were outcrossed to wild-type N2 males. After five outcrosses, which replaces ˜97% of the mutant genome, mutants that bred true were selected for further analysis. Using this procedure, we isolated 13 individual mutants that were resistant to heme toxicity. These mutants were further characterized by analyzing Mendelian segregation ratios, X-linkage, phenotype penetrance, generation times, brood size, and their ability to grow under low hemin. […] This observation was surprising because we anticipated that high heme-resistant mutants will grow poorly under low heme. Based on the mutant's growth profile at low and high heme levels, we broadly categorized them into three phenotypic classes: class A, class B and class C (FIG. 13). These “phenoclusters” have the following growth phenotype: (a) three mutants IH728, IH938, IH731 show with robust growth under low and high (≧800 μM heme (FIG. 13B), (b) one mutant IH828 show exceptional growth under low heme, moderate growth at ≦800 μM heme, and no growth at 1000 μM hemin (FIG. 13C), and (c) six mutants IH921, IH11058, IH1068n, IH1068d, IH1048, and IH718 that show moderate growth under high heme (≦800 μM), but normal growth under low heme (FIG. 13D). By classifying these mutants into phenoclusters, we can focus our efforts on the phenotypic datasets to map the molecular networks and pathways involved in heme dependent processes. For instance, mutants in a cluster may have mutations within the same gene or in multiple genes but within the same pathway.
(§2) Worm Culture and Growth Assays. Free-living worms were cultured in CeHR axenic liquid medium (Dr. Eric Clegg, Personal Communication). […] CeHR medium was modified (henceforth called mCeHR) to eliminate all sources of exogenously added heme; basal growth medium comprised 20 μM hemin chloride (Frontier Scientific, Logan, Utah) and 150 μM of ferrous ammonium sulfate (Sigma Chemicals). Worm strains were grown in mCeHR medium under aerobic conditions in tissue culture flasks at 20° C. ˜3.7×10^6 worms were routinely obtained after 3.5 to 4 days in a T75 flask with 30 ml basal medium from an initial inoculum of −1.5×10^5 worms. For initial culturing of worms in axenic media, three generations of worms were sequentially bleached (1.1% bleach/0.55 M NaOH) to eliminate any contaminating bacterial carryover from agar plates. In all dose-response experiments, worms were growth synchronized by treating the gravid hermaphrodite worms with bleach to dissolve adult worms. The eggs, resistant to bleach, were liberated from the carcasses and extensively washed with M9 buffer followed by overnight hatching in M9 buffer to synchronize growth. By harvesting at appropriate time intervals, synchronous larval stages and adult staged worms were collected for experimental manipulations. Identical numbers of synchronized L1 larvae were inoculated into media with different heme concentrations in 12- or 24-well culture plates. Worm growth was monitored each day and an aliquot was obtained for counting by microscopy usually at days 3, 6, and 9. The worms in each well were counted twice and each growth condition was analyzed in triplicate. P values for statistical significance were calculated utilizing a one-way ANOVA with Student-Newman-Keuls multiple comparison test using GraphPad Instat version 3.01. […]

C. elegans mutant IH718 = test: Growth of heme resistant mutant in CeHR medium; parameters: key: + = wild type equivalent In growth; ND: No growth
Procedure: To further increase the stringency of our genetic screen we split the contents from each 800 μM hemin selection flasks into two flasks containing either 800 μM or 1000 μM hemin. This allowed us to use another tier of positive selection to identify mutants with greater resistance to heme toxicity. Mutants from each flask were isolated and treated as a separate entity by giving an identification number based on the Genetic Nomenclature Guidelines used for C. elegans (http://biosci.umn.edu/CGC/Nomenclature/nomenguid.htm). To eliminate EMS-induced spurious mutations that could result in false positive, the mutants were outcrossed to wild-type N2 males. After five outcrosses, which replaces ˜97% of the mutant genome, mutants that bred true were selected for further analysis. Using this procedure, we isolated 13 individual mutants that were resistant to heme toxicity. […]
Worm Culture and Growth Assays. […] Worm growth was monitored each day and an aliquot was obtained for counting by microscopy usually at days 3, 6, and 9. The worms in each well were counted twice and each growth condition was analyzed in triplicate. P values for statistical significance were calculated utilizing a one-way ANOVA with Student-Newman-Keuls multiple comparison test using GraphPad Instat version 3.01. […]

R02E12.6 = test: qRT-PCR validation of heme-regulated genes (2^-ΔΔCt method); conditions: low heme
Procedure: The initial statistical analysis of the Affymetrix genome array was performed at the NIDDK microarray facility using Affymetrix MAS 5.0 Suite software. […] To further narrow-down candidate genes, we eliminated 58 genes that are involved in worm developmental processes by comparing the data from the gene chip to the microarray data of S. Kim. See Kim, S. K. et al., Science 293, 2087-2092 (2001). […] These 280 genes were then sorted based on different categories of changes in gene expression (up, down or no change) seen in 4 μM versus 500 μM samples using 20 μM dataset as the baseline (Table XX). Protein sequence motif analysis (BLOCKS, PRINTS, Pfam), transmembrane (TM-HMM) and secondary structure predictions (ExPASy) proteomics tools are performed to identify domains and motifs within the predicted ORFs […] and the housekeeping gene Ct value: ΔCt=Ctsample−Ctreference. Relative mRNA abundance represents the difference between ΔCt values for a pair of conditions, i.e., 4 μM versus […]. Relative mRNA expression is exponential and defined by the formula [Mrna]=2^−ΔΔCt. […] The standard error for ΔΔCt will be calculated by the method of Livak and Schmittgen. […]

[1] = system: C. elegans mutant IH1068 n; test: Growth of heme resistant mutant in CeHR medium; parameters: key to Growth 1.6 μM hemin / Growth 0.5 μM GaPP: + = wild type equivalent In growth; ND: No growth
Procedure: as §1, §2

C. elegans mutant IH1048 = test: Growth of heme resistant mutant in CeHR medium; parameters: key to Growth 1.6 μM hemin / Growth 0.5 μM GaPP: + = wild type equivalent In growth; ND: No growth
Procedure: as §1, §2

[2] = system: C. elegans mutant IH1068 d; test: Growth of heme resistant mutant in CeHR medium; parameters: key to Growth 1.6 μM hemin / Growth 0.5 μM GaPP: + = wild type equivalent In growth; ND: No growth
Procedure: as §1, §2

[3] = 20 μM hemin, average in 24 well plates

For hemin chloride, the “Generation time (Days) 20 μM” value (C. elegans mutant IH938; 20 μM hemin) was 3.5 days, the “brood size 20 μM” value (C. elegans mutant IH938; [3]) was 72 and the “Generation time (Days) 800 μM” value (C. elegans mutant IH938; 800 μM hemin) was 4 days. For the same substance, the “Growth 1.6 μM hemin” value (C. elegans mutant IH718) was “+”, the “upregulation of R02E12.6 by qRT-PCR” value (R02E12.6) was over 40 fold and the “Growth 1.6 μM hemin” value [1] was “+”. The “Generation time (Days) 20 μM” value ([1]; 20 μM hemin) was 4 days, the “Growth 1.6 μM hemin” value (C. elegans mutant IH1048) was “+” and the “Generation time (Days) 800 μM” value (C. elegans mutant IH1048; 800 μM hemin) was 4 days. For the same substance, the “Growth 1.6 μM hemin” value [2] was “+”, the “brood size 20 μM” value [2, 3] was 12.4 and the “Generation time (Days) 800 μM” value ([2]; 800 μM hemin) was 4 days.
